Measured values published in US12540118B2, “Dendrene amide compound, bactericide and use thereof” (Jiangsu Flag Chemical Industry Co., Ltd., priority 2020, dated 2026).

Experiments:
[1] = tested on: Sphaerotheca fuliginea; experiment: Sphaerotheca fuliginea potting method; assay type: in vivo; conditions: Podosphaera fuliginea; 100 mg/L; read-out: Sphaerotheca fuliginea control rating
Protocol: The fungicidal activity of the control agents and target compounds are determined. The test and investigation method refers to SOP-SC-1101 sphaerotheca fuliginea potting method in disinfectant rolls written by KANGZHUO and GUBAOGEN in “Standard operation specification for testing biological activity of pesticides”.

[2] = tested on: Erysiphe graminis; experiment: Erysiphe graminis potting method; assay type: in vivo; conditions: Blumeria graminis, read-out: Erysiphe graminis control rating; for pest or weed control at 100 µg/mL: 100 mg/L; for pest or weed control at 6.25 µg/mL: 6.25 mg/L; for pest or weed control at 25 µg/mL: 25 mg/L
Protocol: The fungicidal activity of the control agents and target compounds are determined. The test and investigation method refers to SOP-SC-1116 Erysiphe graminis potting method in disinfectant rolls written by KANGZHUO and GUBAOGEN in “Standard operation specification for testing biological activity of pesticides”.

[3] = molecular target: T1, succinate dehydrogenase (Sus scrofa, UniProt A5GZW8+D0VWV4+Q007T0); experiment: Enzyme activity assay, succinate dehydrogenase (DCIP reduction); assay type: biochemical, porcine; conditions: read-out: Inhibitors (10 μM, SQR)
T1 construct: isolated from porcine hearts; from tissue; host or cells: porcine heart
T1 sequence (Q0QF01 43-664 partner): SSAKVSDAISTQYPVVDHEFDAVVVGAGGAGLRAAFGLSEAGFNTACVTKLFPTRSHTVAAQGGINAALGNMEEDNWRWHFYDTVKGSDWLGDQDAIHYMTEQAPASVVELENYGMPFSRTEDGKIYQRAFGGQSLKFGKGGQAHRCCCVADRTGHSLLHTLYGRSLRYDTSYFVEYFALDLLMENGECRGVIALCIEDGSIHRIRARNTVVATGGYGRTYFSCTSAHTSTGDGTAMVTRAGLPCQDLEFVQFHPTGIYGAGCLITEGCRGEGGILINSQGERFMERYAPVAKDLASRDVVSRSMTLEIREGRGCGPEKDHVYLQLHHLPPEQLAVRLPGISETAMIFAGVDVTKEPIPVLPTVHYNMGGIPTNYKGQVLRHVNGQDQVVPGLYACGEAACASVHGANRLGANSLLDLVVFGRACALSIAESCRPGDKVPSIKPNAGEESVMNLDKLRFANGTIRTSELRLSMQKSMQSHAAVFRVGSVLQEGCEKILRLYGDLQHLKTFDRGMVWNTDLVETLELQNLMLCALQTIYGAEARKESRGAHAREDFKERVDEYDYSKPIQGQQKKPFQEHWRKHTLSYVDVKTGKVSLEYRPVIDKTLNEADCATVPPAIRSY
T1 sequence (Q007T0 29-280): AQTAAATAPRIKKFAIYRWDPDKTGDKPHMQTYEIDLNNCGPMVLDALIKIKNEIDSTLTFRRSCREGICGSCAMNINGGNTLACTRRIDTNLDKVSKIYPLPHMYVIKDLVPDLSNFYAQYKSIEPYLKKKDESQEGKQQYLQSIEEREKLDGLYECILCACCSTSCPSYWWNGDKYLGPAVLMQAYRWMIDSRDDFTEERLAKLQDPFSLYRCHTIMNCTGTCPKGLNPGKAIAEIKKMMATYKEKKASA
T1 sequence (D0VWV4 30-169): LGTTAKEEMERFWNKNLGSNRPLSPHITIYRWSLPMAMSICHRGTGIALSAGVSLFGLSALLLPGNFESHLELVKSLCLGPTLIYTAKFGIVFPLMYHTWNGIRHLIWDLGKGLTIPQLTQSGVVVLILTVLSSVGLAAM
T1 sequence (A5GZW8 57-159 limits assumed): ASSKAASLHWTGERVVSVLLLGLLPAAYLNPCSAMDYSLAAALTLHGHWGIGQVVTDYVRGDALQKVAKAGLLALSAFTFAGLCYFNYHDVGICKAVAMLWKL
Method in brief: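 Porcine heart succinate dehydrogenase (2 nM) in 100 mM sodium phosphate pH 7.4, 0.3 mM EDTA, 20 mM sodium succinate and 53 μM DCIP at 23° C with stirring. DCIP reduction followed at 600 nm (ε 21 mM^−1 cm^−1); linear slope minus baseline gives initial rate.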

Row | SMILES | pest or weed control at 100 µg/mL [1] [%] | pest or weed control at 100 µg/mL [2] [%] | inhibition at 10 µM [3] [%] | pest or weed control at 6.25 µg/mL [2] [%] | pest or weed control at 25 µg/mL [2] [%]
1 | C=C(CN(C(=O)c1c(C(F)F)nn(C)c1F)C1CC1)c1cc(Br)ccc1Br [Compound 29] | 80 to 100 | 80 to 100 | > 90 |  | 
2 | CC(C(=C(Cl)Cl)c1cc(C(F)(F)F)ccc1Cl)N(C(=O)c1c(C(F)F)nn(C)c1F)C1CC1 (stereo not drawn) [Compound 209] | 80 to 100 | 80 to 100 | > 90 |  | 
3 | Cn1nc(C(F)F)c(C(=O)N(CC(=C(Cl)Cl)c2ccccc2F)C2CC2)c1F [Compound 115] | 80 to 100 | 80 to 100 | > 90 |  | 
4 | C=C(c1cc(C(C)C)ccc1C)C(C)N(C(=O)c1c(C(F)F)nn(C)c1F)C1CC1 (stereo not drawn) [Compound 92] | 80 to 100 | 80 to 100 | > 90 |  | 
5 | C=C(c1ccccc1F)C(C)N(C(=O)c1c(C(F)F)nn(C)c1F)C1CC1 (stereo not drawn) [Compound 58] | 80 to 100 | 80 to 100 | > 90 |  | 
6 | C=C(c1ccc(F)cc1)C(C)N(C(=O)c1c(C(F)F)nn(C)c1F)C1CC1 (stereo not drawn) [Compound 68] | 80 to 100 | 80 to 100 | > 90 |  | 
7 | C=C(c1ccc(Cl)cc1F)C(C)N(C(=O)c1c(C(F)F)nn(C)c1F)C1CC1 (stereo not drawn) [Compound 97] | 80 to 100 | 80 to 100 | > 90 |  | 
8 | C=C(c1cccc(OC)c1)C(C)N(C(=O)c1c(C(F)F)nn(C)c1F)C1CC1 (stereo not drawn) [Compound 69] | 80 to 100 | 80 to 100 | > 90 |  | 
9 | C=C(CN(C(=O)c1c(C(F)F)nn(C)c1F)C1CC1)c1cccc(Cl)c1 [Compound 16] | 70 to 80 | 80 to 100 | > 90 |  | 
10 | CC(C(=C(Cl)Cl)c1ccc(F)cc1Cl)N(C(=O)c1c(C(F)F)nn(C)c1F)C1CC1 (stereo not drawn) [Compound 207] | 80 to 100 | 80 to 100 | > 90 |  | 
11 | Cn1nc(C(F)F)c(C(=O)N(CC(=C(Cl)Cl)c2cc(S(C)(=O)=O)ccc2Cl)C2CC2)c1F [Compound 162] | 80 to 100 | 80 to 100 | > 90 |  | 
12 | C=C(CN(C(=O)c1c(C(F)F)nn(C)c1F)C1CC1)c1cc(C)ccc1C(C)C [Compound 38] | 70 to 80 | 80 to 100 | > 90 | 70 to 80 | 80 to 100
13 | C=C(CN(C(=O)c1c(C(F)F)nn(C)c1F)C1CC1)c1cc(C(C)(C)C)ccc1C [Compound 40] | 70 to 80 | 80 to 100 | > 90 |  | 
14 | C=C(c1cc(Cl)ccc1Cl)C(C)N(C(=O)c1c(C(F)F)nn(C)c1F)C1CC1 (stereo not drawn) [Compound 76] | 80 to 100 | 80 to 100 | > 90 |  | 
15 | Cn1nc(C(F)F)c(C(=O)N(CC(=C(Cl)Cl)c2ccc(Cl)cc2)C2CC2)c1F [Compound 112] | 80 to 100 | 80 to 100 | > 90 |  | 
16 | Cc1ccc(C)c(C(CN(C(=O)c2c(C(F)F)nn(C)c2F)C2CC2)=C(Cl)Cl)c1 [Compound 141] | 80 to 100 | 80 to 100 | > 90 |  | 
17 | Cn1nc(C(F)F)c(C(=O)N(CC(=C(Cl)Cl)c2c(F)cc(F)cc2F)C2CC2)c1F [Compound 129] | 80 to 100 | 80 to 100 | > 90 |  | 
18 | C=C(c1cccc(F)c1)C(C)N(C(=O)c1c(C(F)F)nn(C)c1F)C1CC1 (stereo not drawn) [Compound 56] | 80 to 100 | 80 to 100 | > 90 |  | 
19 | Cc1cc(C(C)C)ccc1C(CN(C(=O)c1c(C(F)F)nn(C)c1F)C1CC1)=C(Cl)Cl [Compound 148] | 80 to 100 | 80 to 100 | > 90 |  | 
20 | C=C(c1c(Br)cccc1Br)C(C)N(C(=O)c1c(C(F)F)nn(C)c1F)C1CC1 (stereo not drawn) [Compound 84] | 80 to 100 | 80 to 100 | > 90 |  | 
21 | C=C(c1c(Cl)cccc1Cl)C(C)N(C(=O)c1c(C(F)F)nn(C)c1F)C1CC1 (stereo not drawn) [Compound 73] | 80 to 100 | 80 to 100 | > 90 |  | 
22 | C=C(c1c(C)cccc1C)C(C)N(C(=O)c1c(C(F)F)nn(C)c1F)C1CC1 (stereo not drawn) [Compound 90] | 80 to 100 | 80 to 100 | > 90 |  | 

Row | SMILES | pest or weed control at 100 µg/mL [1] [%] | pest or weed control at 100 µg/mL [2] [%] | inhibition at 10 µM [3] [%] | pest or weed control at 6.25 µg/mL [2] [%] | pest or weed control at 25 µg/mL [2] [%]
23 | C=C(CN(C(=O)c1c(C(F)F)nn(C)c1F)C1CC1)c1c(C)cc(C)cc1C [Compound 36] | 80 to 100 | 80 to 100 | > 90 | 80 to 100 | 80 to 100
24 | C=C(c1ccccc1Br)C(C)N(C(=O)c1c(C(F)F)nn(C)c1F)C1CC1 (stereo not drawn) [Compound 80] | 80 to 100 | 80 to 100 | > 90 |  | 
25 | Cn1nc(C(F)F)c(C(=O)N(CC(=C(Cl)Cl)c2ccc(Cl)c(Cl)c2)C2CC2)c1F [Compound 121] | 80 to 100 | 80 to 100 | > 90 |  | 
26 | Cn1nc(C(F)F)c(C(=O)N(CC(=C(Cl)Cl)c2ccc(F)cc2F)C2CC2)c1F [Compound 126] | 80 to 100 | 80 to 100 | > 90 |  | 
27 | CC(C(=C(Cl)Cl)c1ccc(Br)c(Br)c1)N(C(=O)c1c(C(F)F)nn(C)c1F)C1CC1 (stereo not drawn) [Compound 191] | 80 to 100 | 80 to 100 | > 90 |  | 
28 | Cn1nc(C(F)F)c(C(=O)N(CC(=C(Cl)Cl)c2ccccc2Br)C2CC2)c1F [Compound 132] | 80 to 100 | 80 to 100 | > 90 |  | 
29 | Cn1nc(C(F)F)c(C(=O)N(CC(=C(Cl)Cl)c2ccc(S(C)(=O)=O)cc2Cl)C2CC2)c1F [Compound 159] | 80 to 100 | 80 to 100 | > 90 |  | 
30 | C=C(c1ccc(C)cc1C)C(C)N(C(=O)c1c(C(F)F)nn(C)c1F)C1CC1 (stereo not drawn) [Compound 88] | 80 to 100 | 80 to 100 | > 90 |  | 
31 | C=C(c1cccc(Br)c1)C(C)N(C(=O)c1c(C(F)F)nn(C)c1F)C1CC1 (stereo not drawn) [Compound 81] | 80 to 100 | 80 to 100 | > 90 |  | 
32 | Cn1nc(C(F)F)c(C(=O)N(CC(=C(Cl)Cl)c2ccc(C(F)(F)F)cc2Cl)C2CC2)c1F [Compound 158] | 80 to 100 | 80 to 100 | > 90 |  | 
33 | C=C(c1ccc(F)c(F)c1)C(C)N(C(=O)c1c(C(F)F)nn(C)c1F)C1CC1 (stereo not drawn) [Compound 62] | 80 to 100 | 80 to 100 | > 90 |  | 
34 | C=C(CN(C(=O)c1c(C(F)F)nn(C)c1F)C1CC1)c1ccc(S(C)(=O)=O)cc1Cl [Compound 48] | 80 to 100 | 80 to 100 | > 90 |  | 
35 | C=C(CN(C(=O)c1c(C(F)F)nn(C)c1F)C1CC1)c1cc(C)ccc1C [Compound 34] | 80 to 100 | 80 to 100 | > 90 | 70 to 80 | 80 to 100
36 | CC(C(=C(Cl)Cl)c1c(Br)cccc1Br)N(C(=O)c1c(C(F)F)nn(C)c1F)C1CC1 (stereo not drawn) [Compound 189] | 80 to 100 | 80 to 100 | > 90 |  | 
37 | CCS(=O)(=O)c1ccc(C(=C(Cl)Cl)C(C)N(C(=O)c2c(C(F)F)nn(C)c2F)C2CC2)cc1 (stereo not drawn) [Compound 216] | 80 to 100 | 80 to 100 | > 90 |  | 
38 | Cc1ccc(C(CN(C(=O)c2c(C(F)F)nn(C)c2F)C2CC2)=C(Cl)Cl)c(C)c1 [Compound 140] | 80 to 100 | 80 to 100 | > 90 |  | 
39 | C=C(c1cc(C)ccc1C(C)(C)C)C(C)N(C(=O)c1c(C(F)F)nn(C)c1F)C1CC1 (stereo not drawn) [Compound 94] | 80 to 100 | 80 to 100 | > 90 |  | 
40 | CC(C(=C(Cl)Cl)c1ccc(S(C)(=O)=O)cc1Cl)N(C(=O)c1c(C(F)F)nn(C)c1F)C1CC1 (stereo not drawn) [Compound 212] | 80 to 100 | 80 to 100 | > 90 |  | 
41 | Cn1nc(C(F)F)c(C(=O)N(CC(=C(Cl)Cl)c2cccc(Br)c2)C2CC2)c1F [Compound 133] | 80 to 100 | 80 to 100 | > 90 |  | 
42 | Cc1cccc(C)c1C(=C(Cl)Cl)C(C)N(C(=O)c1c(C(F)F)nn(C)c1F)C1CC1 (stereo not drawn) [Compound 195] | 80 to 100 | 80 to 100 | > 90 |  | 
43 | CC(C(=C(Cl)Cl)c1c(Cl)cc(Cl)cc1Cl)N(C(=O)c1c(C(F)F)nn(C)c1F)C1CC1 (stereo not drawn) [Compound 175] | 80 to 100 | 80 to 100 | > 90 |  | 
